These results are taken from US11839214B2, “Fungicidal mixture comprising substituted pyridines” (BASF SE, priority 2017, dated 2023).

Type in all cases: cell-based
Experiment [1] deals with Septoria tritici. The experiment is described as follows: Activity against leaf blotch on wheat caused by Septoria tritici (microtiterplate test). Particulars: single active; for inhibition of growth at 1 ppm / inhibition of growth at 4 ppm / inhibition of growth at 16 ppm / inhibition of growth at 0.25 ppm / inhibition of growth at 0.063 ppm: Zymoseptoria tritici, 168 h, read-out: Observed efficacy.

Experiment [2] deals with Pyricularia oryzae. The experiment is described as follows: microbe, parasite or virus in culture.
Experiment [3] deals with Sclerotinia sclerotiorum. The experiment is described as follows: Activity against Sclerotinia sclerotiorum in the microtiterplate test. Particulars: single active compound.
For experiment [4], the system named is Botrytis cinerea. The experiment is described as follows: Activity against the grey mold Botrytis cinerea in the microtiterplate test. The following applies: single active compound; for inhibition of growth at 0.25 ppm / inhibition of growth at 1 ppm / inhibition of growth at 4 ppm / inhibition of growth at 16 ppm: Botrytis cinerea, 168 h, read-out: Observed efficacy.

Where [5] appears, read: Pyricularia oryzae, 168 h, read-out: Observed efficacy.
Where [6] appears, read: Sclerotinia sclerotiorum, 168 h, read-out: Observed efficacy.
Setting [7] is: Sclerotinia sclerotiorum, 168 h, 4 ppm, read-out: Observed efficacy.

With `Cc1cc(C2=NC(C)(C)C(F)(F)c3ccccc32)cnc1C` [Compound 1-1], the inhibition of growth at 1 ppm in experiment [1] (1 ppm) was determined as 9%; in experiment [2] (setting [5]) it was 24%; in experiment [3] (setting [6]), 7%; in experiment [4] (1 ppm), 13%. In addition, the inhibition of growth at 4 ppm in experiment [1] is 18%; in experiment [2] (setting [5]), 53%; in experiment [3] (setting [7]), 10%; in experiment [4] it was 16%. Further, the inhibition of growth at 16 ppm is 37% in experiment [1]; 32% in experiment [3] (Sclerotinia sclerotiorum, 168 h, 16 ppm, read-out: Observed efficacy); 19% in experiment [4]. The inhibition of growth at 0.25 ppm in experiment [2] (setting [5]) came to 23%; in experiment [3] (Sclerotinia sclerotiorum, 168 h, 0.25 ppm, read-out: Observed efficacy) it was 7%; in experiment [4] it was 13%.

For the molecule `Cc1cc(C2=NC(C)(C)C(F)(F)c3ccccc32)cnc1C(F)F` [Compound 1-2], the inhibition of growth at 0.25 ppm in experiment [1] worked out at 12%; in experiment [2] (setting [5]) it was 20%. In addition, the inhibition of growth at 1 ppm came out at 6% in experiment [1] (1 ppm), 32% in experiment [2] (setting [5]) and 15% in experiment [4] (1 ppm). The inhibition of growth at 4 ppm in experiment [1] was 29%; in experiment [3] (setting [7]), 16%; in experiment [4], 19%. Also, in experiment [2] (setting [5]), the inhibition of growth at 0.063 ppm amounted to 14%. Also, the inhibition of growth at 16 ppm in experiment [4] came out at 31%.

`Cc1ncc(C2=NC(C)(C)C(F)(F)c3ccccc32)cc1CF` [Compound 1-3]: the inhibition of growth at 0.063 ppm in experiment [1] is 11%. For the same molecule, the inhibition of growth at 0.25 ppm in experiment [1] came out at 13%. For the same molecule, the inhibition of growth at 1 ppm in experiment [1] (1 ppm) was determined as 9%; in experiment [2] (setting [5]), 26%; in experiment [3] (setting [6]), 3%; in experiment [4] (1 ppm), 6%. For the same molecule, the inhibition of growth at 4 ppm in experiment [1] was 13%; in experiment [2] (setting [5]), 52%; in experiment [3] (setting [7]) it was 8%; in experiment [4], 9%. Further, the inhibition of growth at 16 ppm came to 34% in experiment [1] and 19% in experiment [4]. In addition, in experiment [2] (setting [5]), the inhibition of growth at 0.025 ppm worked out at 20%.

For `N#Cc1sc2c(=O)c3ccccc3c(=O)c=2sc1C#N` [Dithianon, dithianon], the inhibition of growth at 0.063 ppm in experiment [1] worked out at 22%; in experiment [2] (setting [5]), 14%. For the same molecule, the inhibition of growth at 0.25 ppm was determined as 82% in experiment [1], 36% in experiment [2] (setting [5]) and 4% in experiment [4]. Also, the inhibition of growth at 1 ppm in experiment [3] (setting [6]) amounted to 36%.

Consider `CC(C)O/N=C(/CNC(=O)c1cn(C)nc1C(F)F)c1ncc(C#CC2CC2)cc1Cl` [Pyrapropyon, pyrapropoyne], for which, in experiment [1] (1 ppm), the inhibition of growth at 1 ppm amounted to 42%. For the same molecule, the inhibition of growth at 4 ppm in experiment [2] (setting [5]) is 1%; in experiment [3] (setting [7]) it was 55%; in experiment [4], 35%. Moreover, the inhibition of growth at 16 ppm in experiment [2] (setting [5]) was 4%; in experiment [4], 71%.

Consider `CC1(C)N=C(c2cnc3ccccc3c2)c2ccccc2C1(F)F` [Quinofumelin, quinofumelin], for which the Observed efficacy in experiment [1] (1 ppm) turned out to be 41%; in experiment [2] (single active compound, 1 ppm), 34%; in experiment [3] (4 ppm) it was 65%; in experiment [4] (1 ppm) it was 30%.
